Laboratory results published in patent publication US10772886B2, “CXCR-2 inhibitors for treating crystal arthropathy disorders” (ARDEA BIOSCIENCES, INC., priority 2016, dated 2020).

How the values were obtained:
Assay type in all cases: in vivo
[1] = test system: rat air pouch model of crystal-induced arthropathy (MSU); test: Rat air pouch model, Example 6 (Compounds 2, 3 and 4)
Protocol: (§1) Sodium hydroxide (40 g, Fisher Scientific) was dissolved in de-ionized water (100 mL, dH2O) to provide a 10N solution. Uric acid (16 g, Sigma) was added to de-ionized water (3400 mL) containing sodium hydroxide solution (11.8 mL, 10N) and heated to 60° C. with constant stirring. […] The resulting clear solution was cooled to 4-8° C., resulting in the formation of crystals, which were isolated by filtration, washed three times with de-ionized wa[…]) and dried at 37° C. The dried mono sodium urate crystals were sifted into an air-tight container for storage. […] Methylcellulose (0.4 g, Sigma) was dissolved in de-ionized water (100 mL) to provide a 0.4% solution used as vehicle. […] Test compounds were suspended in vehicle to provide the desired concentrations, and diluted accordingly. […] Male Sprague-Dawley rats (Charles River Laboratories, 160-180 g) were received, individually examined and housed in cages of five rats each. The animals were in apparent good health with no clinical signs of disease or distress. The rats were placed in quarantine with daily inspections, ear notched for identification purposes and shaved at the nape of the neck. The rats were anesthetized (isoflurane), and the nape of the neck was cleansed with 70% isopropanol (Butler Animal Health Supply) followed by povidone-iodine solution (Ricca Chemical Co.). Sterile air (30 mL, 0.2 μm, Millipore) was injected subcutaneously using a 23 G×11⁄2 inch needle fixed to a 30 mL syringe. The rats were returned to routine housing with no adverse reactions observed. The rats were anesthetized (isoflurane), and the nape of the neck was cleansed with 70% isopropanol (Butler Animal Health Supply) followed by povidone-iodine solution (Ricca Chemical Co.). Sterile air (15 mL, 0.11 μm, Millipore) was injected subcutaneously using a 23 G×11⁄2 inch needle fixed to a 20 mL syringe. The rats were returned to routine housing with no adverse reactions observed. The rats were weighed and sorted into treatment groups based on average body weight. As appropriate, the rats were dosed orally with test compound or vehicle (saline alone). […] Thirty minutes after SC injection or two hours after PO dosing, MSU (15 mL) was injected into the air pouch using an 18 G×2 inch needle fitted to a 20 mL syringe. Control group was injected with 15 mL sterile saline (vehicle). The injection sites were closed (collodion, Macron) and the rats returned to their cages with no adverse effects observed. Four hours after MSU/saline injection, the rats were anesthetized and heparinized saline (5 mL, 10 U/mL) was injected into the air pouch. […] An aliquot of the exudate was transferred to green Eppendorf tubes for total white blood cell (WBC) measurement. After allowing the MSU crystals to settle out for ten minutes, an aliquot of the exudate was transferred to heparinized microtainer tubes (Becton Dickinson) for differential white blood cell counts. The remainder of the exudate was centrifuged and an aliquot of the supernatants was dispensed to labeled clear Eppendorf tubes and stored at -80° C. The rats were exsanguinated into pre-chilled serum separator tubes, processed to serum, and 0.5 mL aliquot was stored at -80° C. in labeled Eppendorf tubes. […] [table]

[2] = test system: rat air pouch model of crystal-induced arthropathy (MSU); test: Rat air pouch model, Example 7 (Compounds 3 and 4 in combination with colchicine)
Protocol: as §1

[3] = test system: rat air pouch model of crystal-induced arthropathy (MSU); test: Rat air pouch therapeutic model, Example 10 (Compounds 3 and 4 in combination with colchicine)
Protocol: Sodium hydroxide (40 g, Fisher Scientific) was dissolved in de-ionized water (100 mL, dH2O) to provide a 10N solution. Uric acid (16 g, Sigma) was added to de-ionized water (3400 mL) containing sodium hydroxide solution (11.8 mL, 10N) and heated to 60° C. with constant stirring. […] The resulting clear solution was cooled to 4-8° C., resulting in the formation of crystals, which were isolated by filtration, washed three times with de-ionized wa[…]) and dried at 37° C. The dried mono sodium urate crystals were sifted into an air-tight container for storage. […] Methylcellulose (0.4 g, Sigma) was dissolved in de-ionized water (100 mL) to provide a 0.4% solution used as vehicle. […] Test compounds were suspended in vehicle to provide the desired concentrations, and diluted accordingly. […] The animals were in apparent good health with no clinical signs of disease or distress. The rats were placed in quarantine with daily inspections, ear notched for identification purposes and shaved at the nape of the neck. The rats were anesthetized (isoflurane), and the nape of the neck was cleansed with 70% isopropanol (Butler Animal Health Supply) followed by povidone-iodine solution (Ricca Chemical Co.). Sterile air (30 mL, 0.2 μm, Millipore) was injected subcutaneously using a 23 G×11⁄2 inch needle fixed to a 30 mL syringe. The rats were returned to routine housing with no adverse reactions observed. The rats were anesthetized (isoflurane), and the nape of the neck was cleansed with 70% isopropanol (Butler Animal Health Supply) followed by povidone-iodine solution (Ricca Chemical Co.). Sterile air (15 mL, 0.11 μm, Millipore) was injected subcutaneously using a 23 G×11⁄2 inch needle fixed to a 20 mL syringe. The rats were returned to routine housing with no adverse reactions observed. The rats were weighed and sorted into treatment groups based on average body weight. As appropriate, the rats were dosed orally with test compound or vehicle (saline alone). […] Control group was injected with 15 mL sterile saline (vehicle). The injection sites were closed (collodion, Macron) and the rats returned to their cages with no adverse effects observed. Four hours after MSU/saline injection, the rats were anesthetized and heparinized saline (5 mL, 10 U/mL) was injected into the air pouch. […] An aliquot of the exudate was transferred to green Eppendorf tubes for total white blood cell (WBC) measurement. After allowing the MSU crystals to settle out for ten minutes, an aliquot of the exudate was transferred to heparinized microtainer tubes (Becton Dickinson) for differential white blood cell counts. The remainder of the exudate was centrifuged and an aliquot of the supernatants was dispensed to labeled clear Eppendorf tubes and stored at -80° C. The rats were exsanguinated into pre-chilled serum separator tubes, processed to serum, and 0.5 mL aliquot was stored at -80° C. in labeled Eppendorf tubes. […] 140 rats were used, divided into 14 groups of 10 animals, as follows: [table]

[4] = 3.0 umol/kg PO + Colchicine 0.1 mpk SC, Group 10
[5] = 10 μmol/kg PO + Colchicine 0.3 mg/kg SC, Groups 9, 14
[6] = 1 umol/kg PO + Colchicine 0.1 mpk SC, Group 9

`CC[C@@H](Nc1c(Nc2cccc(C(=O)N(C)C)c2O)c(=O)c1=O)c1ccc(C)o1` [Compound 2, (R)-2-hydroxy-N,N-dimethyl-3-((2-((1-(5-methylfuran-2-yl)propyl)amino)-3,4-dioxocyclobut-1-en-1-yl)amino)benzamide] was tested, and the “Avg Exudate Vol” value ([1]; 3 mpk PO, Group 3) was 8.4 mL, the “Avg Total WBC” value ([1]; 3 mpk PO, Group 3) was 22 ×10^6 and the Neutrophils ([1]; 3 mpk PO, Group 3) was 11.8 ×10^6.
For `C[C@@H](Oc1cc(NS(=O)(=O)N2CCC2)nc(SCc2cccc(F)c2F)n1)[C@@H](O)CO` [Compound 3, N-(2-((2,3-difluorobenzyl)thio)-6-(((2R,3S)-3,4-dihydroxybutan-2-yl)oxy)pyrimidin-4-yl)azetidine-1-sulfonamide], the “Avg Exudate Vol” value ([1]; 0.3 umol/kg PO, Group 5) was 10.7 mL, the “Avg Total WBC” value ([1]; 0.3 umol/kg PO, Group 5) was 180 ×10^6 and the Neutrophils ([1]; 0.3 umol/kg PO, Group 5) was 155 ×10^6. For the same compound, the “Avg Exudate Vol” value ([1]; 3.0 umol/kg PO, Group 6) was 10 mL, the “Avg Total WBC” value ([1]; 3.0 umol/kg PO, Group 6) was 190 ×10^6 and the Neutrophils ([1]; 3.0 umol/kg PO, Group 6) was 121 ×10^6. For the same compound, the “Avg Exudate Vol” value ([1]; 30 umol/kg PO, Groups 7, 9) was 7 mL, the “Avg Total WBC” value ([1]; 30 umol/kg PO, Groups 7, 9) was 96 ×10^6 and the Neutrophils ([1]; 30 umol/kg PO, Groups 7, 9) was 44.6 ×10^6. For the same compound, the “Avg Exudate Vol” value [2, 4] was 7.8 mL, the “Avg Total WBC” value [2, 4] was 120 ×10^6 and the Neutrophils [2, 4] was 159 ×10^6. The “Avg Exudate Vol” value ([2]; 3 umol/kg PO, Group 5) was 11.1 mL, the “Avg Total WBC” value ([2]; 3 umol/kg PO, Group 5) was 180 ×10^6 and the Neutrophils ([2]; 3 umol/kg PO, Group 5) was 133 ×10^6. The “Avg Exudate Vol” value ([2]; 30 umol/kg PO, Groups 6, 8) was 7.4 mL, the “Avg Total WBC” value ([2]; 30 umol/kg PO, Groups 6, 8) was 110 ×10^6 and the Neutrophils ([2]; 30 umol/kg PO, Groups 6, 8) was 65.2 ×10^6. For the same compound, the “Avg Exudate Vol” value ([3]; 3 μmol/kg PO, Group 10) was 11.5 mL, the “Avg Tot WBC” value ([3]; 3 μmol/kg PO, Group 10) was 120 ×10^6 and the Neutrophils ([3]; 3 μmol/kg PO, Group 10) was 71.1 ×10^6. For the same compound, the “Avg Exudate Vol” value [3, 5] was 9.5 mL, the “Avg Tot WBC” value [3, 5] was 68 ×10^6 and the Neutrophils [3, 5] was 72.6 ×10^6. For the same compound, the “Avg Exudate Vol” value ([3]; 10 μmol/kg PO, Groups 6, 11) was 10.0 mL, the “Avg Tot WBC” value ([3]; 10 μmol/kg PO, Groups 6, 11) was 84 ×10^6 and the Neutrophils ([3]; 10 μmol/kg PO, Groups 6, 11) was 69.2 ×10^6. The “Avg Exudate Vol” value ([3]; 30 μmol/kg PO, Groups 7, 12) was 8.8 mL, the “Avg Tot WBC” value ([3]; 30 μmol/kg PO, Groups 7, 12) was 59 ×10^6 and the Neutrophils ([3]; 30 μmol/kg PO, Groups 7, 12) was 30.7 ×10^6. The “Avg Exudate Vol” value ([3]; 100 μmol/kg PO, Groups 8, 13) was 6.9 mL, the “Avg Tot WBC” value ([3]; 100 μmol/kg PO, Groups 8, 13) was 40 ×10^6 and the Neutrophils ([3]; 100 μmol/kg PO, Groups 8, 13) was 35.1 ×10^6.
`CC1CN(S(=O)(=O)Nc2cc(O[C@H](C)[C@@H](O)CO)nc(SCc3ccc(F)cc3)n2)C1` [Compound 4, N-(6-(((2R,3S)-3,4-dihydroxybutan-2-yl)oxy)-2-((4-fluorobenzyl)thio)pyrimidin-4-yl)-3-methylazetidine-1-sulfonamide] was tested, and the “Avg Exudate Vol” value ([1]; 1.0 umol/kg PO, Group 8) was 10 mL, the “Avg Total WBC” value ([1]; 1.0 umol/kg PO, Group 8) was 270 ×10^6 and the Neutrophils ([1]; 1.0 umol/kg PO, Group 8) was 165 ×10^6. For the same compound, the “Avg Exudate Vol” value ([1]; 30 umol/kg PO, Groups 7, 9) was 7 mL, the “Avg Total WBC” value ([1]; 30 umol/kg PO, Groups 7, 9) was 140 ×10^6 and the Neutrophils ([1]; 30 umol/kg PO, Groups 7, 9) was 95.4 ×10^6. The “Avg Exudate Vol” value ([1]; 100 umol/kg PO, Group 10) was 6.5 mL, the “Avg Total WBC” value ([1]; 100 umol/kg PO, Group 10) was 76 ×10^6 and the Neutrophils ([1]; 100 umol/kg PO, Group 10) was 48.6 ×10^6. The “Avg Exudate Vol” value [2, 6] was 10.3 mL, the “Avg Total WBC” value [2, 6] was 210 ×10^6 and the Neutrophils [2, 6] was 179 ×10^6. For the same compound, the “Avg Exudate Vol” value ([2]; 1 umol/kg PO, Group 7) was 11.8 mL, the “Avg Total WBC” value ([2]; 1 umol/kg PO, Group 7) was 160 ×10^6 and the Neutrophils ([2]; 1 umol/kg PO, Group 7) was 121 ×10^6. For the same compound, the “Avg Exudate Vol” value ([2]; 30 umol/kg PO, Groups 6, 8) was 8.1 mL, the “Avg Total WBC” value ([2]; 30 umol/kg PO, Groups 6, 8) was 100 ×10^6 and the Neutrophils ([2]; 30 umol/kg PO, Groups 6, 8) was 69.6 ×10^6. The “Avg Exudate Vol” value [3, 5] was 7.6 mL, the “Avg Tot WBC” value [3, 5] was 46 ×10^6 and the Neutrophils [3, 5] was 61.5 ×10^6. The “Avg Exudate Vol” value ([3]; 10 μmol/kg PO, Groups 6, 11) was 11.5 mL, the “Avg Tot WBC” value ([3]; 10 μmol/kg PO, Groups 6, 11) was 130 ×10^6 and the Neutrophils ([3]; 10 μmol/kg PO, Groups 6, 11) was 68.4 ×10^6. For the same compound, the “Avg Exudate Vol” value ([3]; 30 μmol/kg PO, Groups 7, 12) was 8.2 mL, the “Avg Tot WBC” value ([3]; 30 μmol/kg PO, Groups 7, 12) was 25 ×10^6 and the Neutrophils ([3]; 30 μmol/kg PO, Groups 7, 12) was 60.4 ×10^6. The “Avg Exudate Vol” value ([3]; 100 μmol/kg PO, Groups 8, 13) was 7.0 mL, the “Avg Tot WBC” value ([3]; 100 μmol/kg PO, Groups 8, 13) was 18 ×10^6 and the Neutrophils ([3]; 100 μmol/kg PO, Groups 8, 13) was 26.2 ×10^6.
For `COc1cc2c(c(OC)c1OC)-c1ccc(OC)c(=O)cc1[C@@H](NC(C)=O)CC2` [Colchicine, COLCHICINE, reference compound], the “Avg Exudate Vol” value ([1]; 1 mpk SC, Group 4) was 5.8 mL, the “Avg Total WBC” value ([1]; 1 mpk SC, Group 4) was 17 ×10^6 and the Neutrophils ([1]; 1 mpk SC, Group 4) was 9.9 ×10^6. The “Avg Exudate Vol” value ([2]; 0.1 mpk SC, Group 3) was 12 mL, the “Avg Total WBC” value ([2]; 0.1 mpk SC, Group 3) was 240 ×10^6 and the Neutrophils ([2]; 0.1 mpk SC, Group 3) was 205 ×10^6. The “Avg Exudate Vol” value ([2]; 1.0 mpk SC, Group 4) was 6 mL, the “Avg Total WBC” value ([2]; 1.0 mpk SC, Group 4) was 22 ×10^6 and the Neutrophils ([2]; 1.0 mpk SC, Group 4) was 10.8 ×10^6. The “Avg Exudate Vol” value ([3]; 0.3 mpk SC, Group 3) was 11.7 mL, the “Avg Tot WBC” value ([3]; 0.3 mpk SC, Group 3) was 180 ×10^6 and the Neutrophils ([3]; 0.3 mpk SC, Group 3) was 71.5 ×10^6. For the same compound, the “Avg Exudate Vol” value ([3]; 0.5 mpk SC, Group 4) was 8.9 mL, the “Avg Tot WBC” value ([3]; 0.5 mpk SC, Group 4) was 35 ×10^6 and the Neutrophils ([3]; 0.5 mpk SC, Group 4) was 70.7 ×10^6. For the same compound, the “Avg Exudate Vol” value ([3]; 1.0 mpk SC, Group 5) was 7.3 mL, the “Avg Tot WBC” value ([3]; 1.0 mpk SC, Group 5) was 9.8 ×10^6 and the Neutrophils ([3]; 1.0 mpk SC, Group 5) was 25.9 ×10^6.
